Laboratory results taken from patent publication US20110065769A1, “Transdermal delivery of ionizable drugs” (priority 2009, published 2011).

Experiments:
[1] = Rat skin flux enhancement, side by side diffusion cell; type: in vitro ADME; details: for Skin flux enhancement by 3% PerRx (in words): 3% PerRx vs control at pH 7.4; for Skin flux, control: control formulation without PerRx; for Skin flux, control / Flux enhancement (S.F. Control + 3% PerRx)/(S.F. control) / Skin flux, control + 3% PerRx: hairless rat skin; for Skin flux, control / Skin flux, control + 3% PerRx: donor suspension pH 7.4, 37° C.; for Flux enhancement (S.F. Control + 3% PerRx)/(S.F. control): ratio of skin flux with 3% PerRx to control, pH 7.4; for Skin flux, control + 3% PerRx: with 3% PerRx enhancer
Protocol: […] The dorsal skin from a rat was excised and mounted on a side by side diffusion cell assembly with a contact area of 0.95 cm^2 and cell volume of 2.5 ml. The temperature of the diffusion cell was regulated at 37° C. The excised rat skin was clamped between the donor cell and the receiver with the dorsal stratum corneum facing the donor cell.
The model drug molecules were suspended in physiological phosphate buffer solution, of pH 7.4. The sampling volume of 1.0 ml was removed at the time point and the sampling volume was replaced with a fresh volume of the buffer solution. Skin flux of the drugs was measured in the absence or presence of the enhancer N,N-dimethylamino isobutyric acid propylene glycol mono laureate (also known as dodecanoic acid 2-(3-dimethylamethyl-propionyloxy)-propylester, or PerRx™).

[2] = Aqueous solubility with addition of 3% PerRx; type: physicochemical; details: 3% PerRx added to control formulation
From the text: So in the present work, it is believed that at pH 7.4 addition of the acetic acid functional group into polar head position will affect tremendously the physical chemical properties of molecules. […] See the results table.

Row | Structure (SMILES) | Skin flux enhancement by 3% PerRx (in words) [1] | Skin flux, control [1] [μg/cm^2-hr] | Flux enhancement (S.F. Control + 3% PerRx)/(S.F. control) [1] [X] | Skin flux, control + 3% PerRx [1] [μg/cm^2-hr] | Effect of addition of 3% PerRx on aqueous solubility [2]
1 | COc1ccc2c(c1)c(CC(=O)O)c(C)n2C(=O)c1ccc(Cl)cc1 [INDOM, indomethacin] | enhanced most | 0.5 | 14 | 7.0 | 
2 | O=[N+]([O-])O[C@H]1CO[C@H]2[C@@H]1OC[C@H]2O[N+](=O)[O-] [ISDN, Isosorbide di nitrate] |  | 20 | 2 | 40 | 
3 | O=[N+]([O-])O[C@@H]1CO[C@H]2[C@@H]1OC[C@@H]2O [ISMN, Isosorbide mono nitrate] | enhanced most | 40 | 18 | 700 | does not affect the aqueous solubility
